Each block holds one compound with its values, some of them ahead of it. Active and inactive are the calls of the source.
How the values were obtained:
[1] = biological target: T1, Corticotropin-releasing factor receptor 2/Corticotropin-releasing factor-binding protein (Homo sapiens, UniProt P24387+Q13324); test: Dose Response confirmation of uHTS hits for small molecule antagonists of the CRF-binding protein and CRF-R2 receptor complex.; assay type: functional; conditions: read-out: IC50_Mean
T1 sequence (Q13324 whole entry): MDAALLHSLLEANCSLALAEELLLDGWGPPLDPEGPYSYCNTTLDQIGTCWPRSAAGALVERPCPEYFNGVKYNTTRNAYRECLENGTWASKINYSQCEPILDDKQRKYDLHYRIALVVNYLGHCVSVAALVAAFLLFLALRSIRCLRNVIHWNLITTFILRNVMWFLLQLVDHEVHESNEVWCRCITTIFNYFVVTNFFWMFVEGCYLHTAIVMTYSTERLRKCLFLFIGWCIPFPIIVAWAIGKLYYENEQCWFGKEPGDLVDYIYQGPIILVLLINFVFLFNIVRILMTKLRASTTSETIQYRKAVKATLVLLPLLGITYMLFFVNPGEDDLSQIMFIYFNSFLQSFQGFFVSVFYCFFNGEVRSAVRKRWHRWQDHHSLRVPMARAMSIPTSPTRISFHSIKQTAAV
T1 sequence (P24387 whole entry): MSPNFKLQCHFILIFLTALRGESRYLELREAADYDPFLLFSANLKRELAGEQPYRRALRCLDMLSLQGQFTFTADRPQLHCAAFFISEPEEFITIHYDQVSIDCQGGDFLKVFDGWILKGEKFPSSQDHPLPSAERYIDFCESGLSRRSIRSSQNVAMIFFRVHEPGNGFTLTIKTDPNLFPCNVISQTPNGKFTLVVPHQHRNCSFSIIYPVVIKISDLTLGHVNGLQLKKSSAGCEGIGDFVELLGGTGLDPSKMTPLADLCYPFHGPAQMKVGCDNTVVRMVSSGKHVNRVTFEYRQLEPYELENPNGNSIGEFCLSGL

[2] = biological target: T1, Corticotropin-releasing factor receptor 2/Corticotropin-releasing factor-binding protein; test: activators of CRF receptor 2 with binding protein – uHTS hits, confirmation (AID 602473); assay type: functional; conditions: read-out: EC50_Mean
[3] = CRF-BP/CRF-R2 complex antagonists, dose response, cell-based, uHTS hits, 384-well (AID 651639); assay type: functional, Homo sapiens; conditions: read-out: IC50_Mean
[4] = tested on: Streptococcus sp. 'group A'; test: growth inhibition of control SK(-) GAS strain, dose response, counter-screen for streptokinase expression inhibitor project, luminescence, kanamycin, BacTiterGlo, confirmation (AID 1900); assay type: functional, organism-based
[5] = tested on: Streptococcus; test: Group A Streptococcus viability loss, dose response, counter-screen for streptokinase expression inhibitor project, luminescence, BacTiterGlo (AID 1915); assay type: functional, organism-based;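 further: potency for reduction of bacterial viability or growth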
[6] = biological target: T2, Probable nicotinate-nucleotide adenylyltransferase (Staphylococcus aureus (strain N315), UniProt P65502); assay type: functional, Staphylococcus aureus subsp. aureus N315;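 on IC50 Mean: confirmatory dose-response retesting of NadD inhibitor hits first found in an ultra-high-throughput screen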
[7] = biological target: T2, Probable nicotinate-nucleotide adenylyltransferase; assay type: functional, Staphylococcus aureus subsp. aureus N315; conditions: read-out: IC50_Mean
[8] = biological target: T3, Caspase-3 (Homo sapiens, UniProt P42574); assay type: functional;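 further: Dose-response selectivity test against caspase-3 for candidate inhibitors of sentrin-specific proteases (SENPs)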
T3 sequence (P42574 whole entry): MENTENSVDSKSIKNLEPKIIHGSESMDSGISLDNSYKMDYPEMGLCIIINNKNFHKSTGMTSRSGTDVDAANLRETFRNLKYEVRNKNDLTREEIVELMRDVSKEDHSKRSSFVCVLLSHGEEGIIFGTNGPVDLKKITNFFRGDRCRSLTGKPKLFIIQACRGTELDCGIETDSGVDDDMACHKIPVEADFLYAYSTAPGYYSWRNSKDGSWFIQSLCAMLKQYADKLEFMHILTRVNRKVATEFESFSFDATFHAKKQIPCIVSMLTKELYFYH

[9] = biological target: T4, Sentrin-specific protease 7 (Homo sapiens, UniProt Q9BQF6); assay type: functional;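 further: Luminescence-based dose-response confirmation of ultra-high-throughput screening hits, measuring inhibition of SENP7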
T4 sequence (Q9BQF6 whole entry): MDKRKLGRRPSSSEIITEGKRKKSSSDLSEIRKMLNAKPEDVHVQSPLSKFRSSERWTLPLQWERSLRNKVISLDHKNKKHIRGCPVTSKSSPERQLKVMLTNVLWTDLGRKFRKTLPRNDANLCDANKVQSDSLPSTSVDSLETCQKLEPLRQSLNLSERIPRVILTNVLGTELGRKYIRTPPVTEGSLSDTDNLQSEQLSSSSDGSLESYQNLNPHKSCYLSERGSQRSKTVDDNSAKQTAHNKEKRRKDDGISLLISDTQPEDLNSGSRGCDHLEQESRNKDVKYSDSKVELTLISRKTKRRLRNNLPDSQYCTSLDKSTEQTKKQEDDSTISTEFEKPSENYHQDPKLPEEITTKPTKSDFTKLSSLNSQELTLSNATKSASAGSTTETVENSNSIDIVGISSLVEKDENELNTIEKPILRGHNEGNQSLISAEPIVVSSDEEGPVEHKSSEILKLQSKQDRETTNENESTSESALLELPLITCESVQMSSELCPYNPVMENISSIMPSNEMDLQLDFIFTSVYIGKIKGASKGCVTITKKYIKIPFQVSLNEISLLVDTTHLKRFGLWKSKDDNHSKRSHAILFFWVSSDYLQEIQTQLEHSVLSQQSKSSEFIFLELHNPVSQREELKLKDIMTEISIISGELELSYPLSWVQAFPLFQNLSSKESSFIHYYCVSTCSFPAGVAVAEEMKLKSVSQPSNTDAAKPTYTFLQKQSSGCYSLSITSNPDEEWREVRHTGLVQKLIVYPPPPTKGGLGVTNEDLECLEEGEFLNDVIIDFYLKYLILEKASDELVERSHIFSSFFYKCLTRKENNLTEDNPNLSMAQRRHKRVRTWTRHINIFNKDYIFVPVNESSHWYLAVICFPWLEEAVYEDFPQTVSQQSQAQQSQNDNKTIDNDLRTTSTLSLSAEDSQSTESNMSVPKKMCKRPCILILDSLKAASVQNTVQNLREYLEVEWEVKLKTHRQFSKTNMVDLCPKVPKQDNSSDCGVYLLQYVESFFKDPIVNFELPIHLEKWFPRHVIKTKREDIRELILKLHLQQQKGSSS

[10] = biological target: T5, Sentrin-specific protease 6 (Homo sapiens, UniProt Q9GZR1); assay type: functional;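 further: Luminescence-based dose-response confirmatory assay of SENP6 inhibition, following up an ultra-high-throughput screen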
T5 sequence (Q9GZR1 whole entry): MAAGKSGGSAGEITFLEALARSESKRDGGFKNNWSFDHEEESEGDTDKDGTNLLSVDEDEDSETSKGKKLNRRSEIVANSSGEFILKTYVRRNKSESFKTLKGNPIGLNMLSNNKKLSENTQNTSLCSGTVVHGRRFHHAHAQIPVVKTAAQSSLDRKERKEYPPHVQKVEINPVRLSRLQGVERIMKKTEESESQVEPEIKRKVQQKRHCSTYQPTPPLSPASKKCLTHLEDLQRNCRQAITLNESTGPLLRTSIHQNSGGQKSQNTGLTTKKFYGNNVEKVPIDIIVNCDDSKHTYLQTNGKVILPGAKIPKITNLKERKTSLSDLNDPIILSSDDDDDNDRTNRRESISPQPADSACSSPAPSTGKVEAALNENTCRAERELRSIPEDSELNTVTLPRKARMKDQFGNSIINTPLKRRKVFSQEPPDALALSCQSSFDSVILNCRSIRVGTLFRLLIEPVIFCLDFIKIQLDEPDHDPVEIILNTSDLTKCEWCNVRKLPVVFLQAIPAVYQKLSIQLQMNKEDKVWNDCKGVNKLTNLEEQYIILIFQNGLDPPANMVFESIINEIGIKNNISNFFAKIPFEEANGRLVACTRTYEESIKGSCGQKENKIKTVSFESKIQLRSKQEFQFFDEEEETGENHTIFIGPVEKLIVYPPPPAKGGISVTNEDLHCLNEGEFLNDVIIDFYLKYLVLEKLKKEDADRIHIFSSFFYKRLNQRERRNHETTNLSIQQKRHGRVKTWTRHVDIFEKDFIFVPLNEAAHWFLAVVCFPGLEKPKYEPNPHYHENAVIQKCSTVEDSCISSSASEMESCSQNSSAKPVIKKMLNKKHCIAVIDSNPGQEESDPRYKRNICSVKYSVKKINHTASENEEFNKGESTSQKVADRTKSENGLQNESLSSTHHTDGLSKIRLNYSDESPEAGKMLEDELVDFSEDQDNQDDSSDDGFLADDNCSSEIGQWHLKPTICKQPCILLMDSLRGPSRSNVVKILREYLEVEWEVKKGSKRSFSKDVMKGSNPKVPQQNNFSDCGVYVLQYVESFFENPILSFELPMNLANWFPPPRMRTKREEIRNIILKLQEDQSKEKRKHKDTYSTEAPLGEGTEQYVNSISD

[11] = biological target: T6, Sentrin-specific protease 8 (Homo sapiens, UniProt Q96LD8); assay type: functional;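 further: luminescence read-out of SENP8 inhibition, dose-response confirmation following an ultra-high-throughput screen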
T6 sequence (Q96LD8 whole entry): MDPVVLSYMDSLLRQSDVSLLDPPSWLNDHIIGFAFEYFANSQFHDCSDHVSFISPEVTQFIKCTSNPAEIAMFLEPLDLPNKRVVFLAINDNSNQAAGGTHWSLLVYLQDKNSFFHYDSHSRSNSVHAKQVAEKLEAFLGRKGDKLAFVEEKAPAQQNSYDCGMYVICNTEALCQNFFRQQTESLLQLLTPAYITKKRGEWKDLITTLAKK

IC50 [1]: 19.4 µM (active) | EC50 [2]: > 53 µM (inactive) | IC50 [3]: > 20 µM (inactive)
SMILES: O=C(CCCCn1c(=O)c2ccccc2n(Cc2ccc(F)cc2Cl)c1=O)NCc1ccco1

SMILES: O=S(=O)(Nc1nccs1)c1ccc(Nc2nnc(-c3ccccc3)c3ccccc23)cc1
EC50 [4]: 1.06 µM (active) | EC50 [5]: 3.67 µM (active) | IC50 [6]: 5.9 µM (active) | IC50 [7]: 29.2 µM (active)

IC50 [8]: 17.7 µM (active) | IC50 [9]: 2.96 µM (active) | IC50 [10]: 4.35 µM (active)
SMILES: COC(=O)c1sc(-c2ccc(Cl)cc2)cc1N
IC50 [11]: 67.1 µM (active)

IC50 [1]: 2.59 µM (active) | EC50 [2]: 4.33 µM (active) | IC50 [3]: 6.13 µM (active)
SMILES: Cc1ccc(NC(=O)c2ccccc2NS(=O)(=O)c2ccc(F)cc2)cc1S(=O)(=O)N1CCCCC1

— ChEMBL document CHEMBL1201862, “PubChem BioAssay data set” (2004)
